Measurements as given in ChEMBL document CHEMBL1140704, “Further structure-activity relationships study of hybrid 7-{[2-(4-phenylpiperazin-1-yl)ethyl]propylamino}-5,6,7,8-tetrahydronaphthalen-2-ol analogues: identification of a high-affinity D3-preferring agonist with potent in vivo activity with long duration of action” (J Med Chem, 2008).
The source made the active and inactive calls. The calls are words filed in the database; no cut-off is given here.

These compounds were tested against T1, D(2) dopamine receptor (Homo sapiens, UniProt P14416) (assay: Agonist activity at human cloned dopamine D2L receptor expressed in CHO cells assessed as stimulation of [35S]GTPgammaS binding). Conditions: not given.
T1 sequence (P14416 whole entry): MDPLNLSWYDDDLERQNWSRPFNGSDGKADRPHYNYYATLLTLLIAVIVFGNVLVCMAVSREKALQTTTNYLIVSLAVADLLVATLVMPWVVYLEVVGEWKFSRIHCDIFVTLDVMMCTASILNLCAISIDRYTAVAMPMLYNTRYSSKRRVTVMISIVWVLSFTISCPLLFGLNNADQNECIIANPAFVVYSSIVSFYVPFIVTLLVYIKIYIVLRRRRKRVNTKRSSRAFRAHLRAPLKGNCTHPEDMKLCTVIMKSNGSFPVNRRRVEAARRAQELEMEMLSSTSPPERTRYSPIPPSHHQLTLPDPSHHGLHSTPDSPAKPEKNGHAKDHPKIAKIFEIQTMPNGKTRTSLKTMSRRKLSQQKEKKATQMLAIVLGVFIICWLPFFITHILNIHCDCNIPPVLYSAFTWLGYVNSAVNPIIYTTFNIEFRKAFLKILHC
Format: functional, cell-based

Row | Structure (SMILES) | EC50
1 | CCCN(CCN1CCN(c2ccccc2OC)CC1)C1CCc2c(O)cccc2C1 (single isomer, unassigned; (-)) [listing 1 of 2 here] | 1.56 nM
2 | CCCN(CCN1CCN(c2ccccc2)CC1)C1CCc2ccc(O)cc2C1 (stereo not given) | 12.2 nM

What follows are compounds tested against T1, D(2) dopamine receptor (assay: biochemical). Conditions: not given.

Row | Structure (SMILES) | Ki
3 | CCCN(CCN1CCN(c2ccccc2OC)CC1)C1CCc2c(O)cccc2C1 (single isomer, unassigned; (-)) [listing 1 of 2 here] | 9.56 nM
4 | CCCN(CCN1CCN(c2ccccc2OC)CC1)C1CCc2c(O)cccc2C1 (single isomer, unassigned; (+)) [listing 1 of 2 here] | 88.7 nM
5 | Oc1ccc2c(c1)CC(N(CCc1cccs1)CCN1CCN(c3ccccc3)CC1)CC2 (stereo not given) | 24.6 nM
6 | CCCN(CCN1CCN(c2ccccc2)CC1)C1CCc2ccc3c(c2C1)CC(=O)N3 (stereo not given) | 90.6 nM
7 | CCCN(CCN1CCN(c2ccccc2OC)CC1)C1CCc2c(O)cccc2C1 (racemic) [listing 1 of 2 here] | 35.8 nM

The next lines start with the values.

Row | Ki | Structure (SMILES)
8 | 14.6 nM | CCCN(CCN1CCN(c2cccc(Cl)c2Cl)CC1)C1CCc2c(O)cccc2C1 (racemic)
9 | 167 nM | CCCN(CCCN1CCN(c2ccccc2)CC1)C1CCc2ccc(O)cc2C1 (stereo not given)
10 | 21.7 nM | CCCN(CCCCN1CCN(c2ccccc2)CC1)C1CCc2cc(O)c(O)cc2C1 (stereo not given)
11 | 638 nM | CCCN(CCN1CCN(c2ccccc2)CC1)C1CCc2ccc(N)cc2C1 (stereo not given)
12 | 70.3 nM | CCCN(CCN1CCN(c2ccccc2)CC1)C1CCc2cc(O)c(O)cc2C1 (stereo not given)
13 | 649 nM | CCCN(CCN1CCN(c2ccccc2)CC1)C1CCc2cc(O)ccc2C1 (stereo not given)
14 | 19.3 nM | CCCN(CCCCN1CCN(c2ccccc2)CC1)C1CCc2ccc(O)cc2C1 (stereo in doubt; (+)-13) [listing 1 of 2 here]
15 | 142 nM | CCCN(CCN1CCN(c2ccccc2)CC1)C1CCc2ccc(O)cc2C1 (stereo not given)
16 | 19.4 nM | CCCN(CCCCN1CCN(c2ccccc2)CC1)C1CCc2ccc(O)cc2C1 (stereo in doubt; (-)-13) [listing 1 of 2 here]

The compounds below were run against T2, D(3) dopamine receptor (Homo sapiens, UniProt P35462) (assay: biochemical). Conditions: not given.
T2 sequence (P35462 whole entry): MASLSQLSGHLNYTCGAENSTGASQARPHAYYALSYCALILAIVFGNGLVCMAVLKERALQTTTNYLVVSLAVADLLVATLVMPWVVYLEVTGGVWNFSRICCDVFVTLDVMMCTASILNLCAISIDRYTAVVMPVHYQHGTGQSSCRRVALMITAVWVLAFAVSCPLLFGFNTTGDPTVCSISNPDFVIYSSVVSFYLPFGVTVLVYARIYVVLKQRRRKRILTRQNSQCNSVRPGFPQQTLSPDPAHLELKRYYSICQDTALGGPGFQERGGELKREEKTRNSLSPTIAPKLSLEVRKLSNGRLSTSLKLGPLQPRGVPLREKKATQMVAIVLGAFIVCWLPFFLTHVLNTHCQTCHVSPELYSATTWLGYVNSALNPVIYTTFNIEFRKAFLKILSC

Row | Structure (SMILES) | Ki
17 | CCCN(CCN1CCN(c2ccccc2OC)CC1)C1CCc2c(O)cccc2C1 (single isomer, unassigned; (-)) [listing 1 of 2 here] | 0.46 nM
18 | CCCN(CCN1CCN(c2ccccc2OC)CC1)C1CCc2c(O)cccc2C1 (single isomer, unassigned; (+)) [listing 1 of 2 here] | 18.8 nM
19 | Oc1ccc2c(c1)CC(N(CCc1cccs1)CCN1CCN(c3ccccc3)CC1)CC2 (stereo not given) | 23.9 nM
20 | CCCN(CCN1CCN(c2ccccc2)CC1)C1CCc2ccc3c(c2C1)CC(=O)N3 (stereo not given) | 10.9 nM
21 | CCCN(CCN1CCN(c2ccccc2OC)CC1)C1CCc2c(O)cccc2C1 (racemic) [listing 1 of 2 here] | 2.8 nM

More lines, now with the values ahead:

Row | Ki | Structure (SMILES)
22 | 0.45 nM | CCCN(CCN1CCN(c2cccc(Cl)c2Cl)CC1)C1CCc2c(O)cccc2C1 (racemic)
23 | 10.3 nM | CCCN(CCCN1CCN(c2ccccc2)CC1)C1CCc2ccc(O)cc2C1 (stereo not given)
24 | 2.89 nM | CCCN(CCCCN1CCN(c2ccccc2)CC1)C1CCc2cc(O)c(O)cc2C1 (stereo not given)
25 | 22.2 nM | CCCN(CCN1CCN(c2ccccc2)CC1)C1CCc2ccc(N)cc2C1 (stereo not given)
26 | 1.39 nM | CCCN(CCN1CCN(c2ccccc2)CC1)C1CCc2cc(O)c(O)cc2C1 (stereo not given)
27 | 11.2 nM | CCCN(CCN1CCN(c2ccccc2)CC1)C1CCc2cc(O)ccc2C1 (stereo not given)
28 | 0.74 nM | CCCN(CCCCN1CCN(c2ccccc2)CC1)C1CCc2ccc(O)cc2C1 (stereo in doubt; (+)-13) [listing 1 of 2 here]
29 | 1.56 nM | CCCN(CCN1CCN(c2ccccc2)CC1)C1CCc2ccc(O)cc2C1 (stereo not given)
30 | 1.22 nM | CCCN(CCCCN1CCN(c2ccccc2)CC1)C1CCc2ccc(O)cc2C1 (stereo in doubt; (-)-13) [listing 1 of 2 here]

What follows are compounds tested on Rattus norvegicus (assay: Effect on rotational activity in 6-OH-DA-Lesioned rat assessed as number of rotations at 2.51 mg/kg, ip). Conditions: not given.
Format: functional, organism-based
Design: dose 2.51 mg/kg

Row | Structure (SMILES) | Activity
31 | CCCN(CCN1CCN(c2ccccc2)CC1)C1CCc2ccc(O)cc2C1 (stereo not given) | Active

What follows are compounds tested on Rattus norvegicus (assay: Effect on rotational activity in 6-OH-DA-Lesioned rat assessed as number of rotations at 2.87 mg/kg, ip after 12 hrs). Conditions: route intraperitoneal.
Format: functional

Row | Structure (SMILES) | Activity
32 | CCCN(CCN1CCN(c2ccccc2)CC1)C1CCc2c(O)cccc2C1 (stereo in doubt; (-)-25) | 4319

Each compound was assayed against T2, D(3) dopamine receptor (assay: not given). Conditions: not given.

Row | Structure (SMILES) | EC50
33 | CCCN(CCN1CCN(c2ccccc2OC)CC1)C1CCc2c(O)cccc2C1 (single isomer, unassigned; (-)) [listing 1 of 2 here] | 0.08 nM
34 | CCCN(CCN1CCN(c2ccccc2)CC1)C1CCc2ccc(O)cc2C1 (stereo not given) | 0.69 nM

Species: Homo sapiens
Experiment: Selectivity for human D3 receptor over human D2L receptor
Conditions: not given

Row | Structure (SMILES) | Ratio Ki | Ratio EC50
35 | CCCN(CCN1CCN(c2ccccc2OC)CC1)C1CCc2c(O)cccc2C1 (single isomer, unassigned; (-)) [listing 2 of 2 here] | 20.9 | 19.4
36 | CCCN(CCCCN1CCN(c2ccccc2)CC1)C1CCc2ccc(O)cc2C1 (stereo in doubt; (-)-13) [listing 2 of 2 here] | 15.9 | 
37 | Oc1ccc2c(c1)CC(N(CCc1cccs1)CCN1CCN(c3ccccc3)CC1)CC2 (stereo not given) | 1.03 | 
38 | CCCN(CCN1CCN(c2ccccc2OC)CC1)C1CCc2c(O)cccc2C1 (racemic) [listing 2 of 2 here] | 12.8 | 
39 | CCCN(CCN1CCN(c2ccccc2)CC1)C1CCc2ccc3c(c2C1)CC(=O)N3 (stereo not given) | 8.27 | 
40 | CCCN(CCCCN1CCN(c2ccccc2)CC1)C1CCc2ccc(O)cc2C1 (stereo in doubt; (+)-13) [listing 2 of 2 here] | 25.8 | 
41 | CCCN(CCN1CCN(c2ccccc2OC)CC1)C1CCc2c(O)cccc2C1 (single isomer, unassigned; (+)) [listing 2 of 2 here] | 4.72 | 

Now from value to compound, other results behind:

Row | Ratio Ki | Structure (SMILES) | Ratio EC50
42 | 32.2 | CCCN(CCN1CCN(c2cccc(Cl)c2Cl)CC1)C1CCc2c(O)cccc2C1 (racemic) | 
43 | 16.2 | CCCN(CCCN1CCN(c2ccccc2)CC1)C1CCc2ccc(O)cc2C1 (stereo not given) | 
44 | 7.51 | CCCN(CCCCN1CCN(c2ccccc2)CC1)C1CCc2cc(O)c(O)cc2C1 (stereo not given) | 
45 | 50.6 | CCCN(CCN1CCN(c2ccccc2)CC1)C1CCc2cc(O)c(O)cc2C1 (stereo not given) | 
46 | 57.9 | CCCN(CCN1CCN(c2ccccc2)CC1)C1CCc2cc(O)ccc2C1 (stereo not given) | 
47 | 91 | CCCN(CCN1CCN(c2ccccc2)CC1)C1CCc2ccc(O)cc2C1 (stereo not given) | 17.6

What follows are compounds tested on Rattus norvegicus (assay: Effect on rotational activity in 6-OH-DA-Lesioned rat assessed as number of rotations at 0.53 mg/kg, ip after 9 hrs). Conditions: route intraperitoneal.
Format: functional

Row | Structure (SMILES) | Activity
48 | CCCN(CCN1CCN(c2ccccc2)CC1)C1CCc2c(O)cccc2C1 (stereo in doubt; (-)-25) | 3609
